# Assay results reported in patent US20260309717A1, “PROXIMITY INDUCING SYSTEM AND USES THEREOF” (SORBONNE UNIVERSITE, priority 2022, published 2026).
# Tests used:
# [1] = target: T1, ^FIREmate and ^FIREtag (TOM20-ECFP-^FIREmate / mCherry-^FIREtag) (Halorhodospira halophila, UniProt P16113, A30V/C69G/D97P/F96I, form not given/G21E/G25R/K17N/M100R/M109L/Q41L/Q99S/S72T/T101G/V83A/Y94W/Y98T); assay: Stability of the ternary assembly over time at mitochondria, time-lapse confocal microscopy, U2OS cells; format: cell-based; details: 10 μM; 1 image every 2 minutes
# T1 construct: TOM20(1-34)-ECFP-FIREmate and mCherry-FIREtag in HeLa or U2OS cells
# T1 sequence (P16113 1-114 A30V/C69G/D97P/F96I/G21E/G25R/K17N/M100R/M109L/Q41L/Q99S/S72T/T101G/V83A/Y94W/Y98T): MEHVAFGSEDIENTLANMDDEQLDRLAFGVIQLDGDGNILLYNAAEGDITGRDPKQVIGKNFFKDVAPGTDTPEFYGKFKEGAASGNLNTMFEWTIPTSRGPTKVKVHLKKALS
# Description: FIGS. 4A-D illustrate the recruitment over time of cytoplasmic proteins to mitochondria with the proximity inducing system described herein. (4A, C) HeLa cells co-expressing mCherry-^FIREtag and Tom20-ECFP-^FIREmate were treated with 10 μM HBR-2,5DM and imaged by time-lapse confocal microscopy at 1 image per 5 seconds. (4B, D) U2OS cells co-expressing mCherry-^FIREtag and Tom20-ECFP-^FIREmate were treated with 10 μM HBR-2,5DM and imaged by time-lapse confocal microscopy at 1 image every 2 minutes. FIG. 4A is a representative time-lapse of the HeLa cells from the addition of HBR-2,5DM at 0 sec (ex/em 488/508-570 nm). […] Scale bars are 20 μm. FIG. 4B is a representative time-lapse of the U2OS cells from the addition of HBR-2,5DM at 0 min (mCherry: ex/em 561/606-675 nm; FIRE: ex/em 488/508-570 nm; ECFP: ex/em 445/455-499 nm). […] Scale bars are 20 μm. FIG. 4C is a graph showing the temporal evolution of the FIRE signal detected in HeLa cells upon addition of HBR-2,5DM at 0 sec. […] FIG. 4D is a graph showing the temporal evolution of the FIRE signal detected in U2OS cells upon addition of HBR-2,5DM at 0 min. […]
# The confocal micrographs were acquired on a Zeiss LSM 980 Laser Scanning Microscope equipped with a plan apochromat 63x/1.4 NA oil immersion objective. […] The images were analyzed using Icy (2.4.0.0) and Fiji (Image J). […]
# [2] = target: T2, FKBP-caged^FIREtag / FRB-^FIREmate (Halorhodospira halophila, UniProt P16113, A30V/C69G/D97P/F96I, form not given/G21E/G25R/K17N/M100R/M109L/Q41L/Q99S/S72T/T101G/V83A/Y94W/Y98T); assay: Flow cytometry of ternary assembly formation with caged^FIREtag, HEK293T cells; format: cell-based
# T2 construct: FKBP-caged FIREtag (PYP 2-114 C69G cage) and FRB-FIREmate co-expressed in HEK293T cells
# T2 sequence (P16113 1-114 A30V/C69G/D97P/F96I/G21E/G25R/K17N/M100R/M109L/Q41L/Q99S/S72T/T101G/V83A/Y94W/Y98T): T1 sequence (P16113 1-114 A30V/C69G/D97P/F96I/G21E/G25R/K17N/M100R/M109L/Q41L/Q99S/S72T/T101G/V83A/Y94W/Y98T)
# From the text: FIG. 10 is a graph illustrating the fluorogen-dependent interaction between caged ^FIREtag and ^FIREmate. […] Data represent the mean values±SD of 3 independent experiments.
# Although, as indicated above, no self-complementation between ^FIREtag and ^FIREmate could be observed in the absence of fluorogen (see FIG. 3), a caged FIREt was designed to prevent any interaction with ^FIREmate in the absence of fluorogen, even at high expression levels. To cage ^FIREtag, the N-terminal domain 2-114 of Halorhodospira halophila photoactive yellow protein (PYP) C69G (corresponding to SEQ ID NO: 21) was fused to ^FIREtag. The intramolecular interaction between ^FIREtag and the N-terminal domain 2-114 of H. halophila PYP C69G induces the folding of the caged^FIREtag protein, thus preventing any intermolecular interaction of the caged^FIREtag with ^FIREmate. The fusion proteins FKBP-caged^FIREtag and FRB-^FIREmate were co-expressed in HEK293T cells. The cells were then treated with the fluorogens HBR-2,5DM at various concentrations (1, 5, 10, 25 or 50 μM as indicated), in the presence or absence of rapamycin.
smiles,measurement,setting,value
"Cc1cc(/C=C2\SC(=S)NC2=O)c(C)cc1O [HBR-2,5DM, (Z)-5-(4-hydroxy-2,5-dimethylbenzylidene)-2-thioxo-1,3-thiazolidin-4-one]",duration of fluorescence detected (stability of the ternary fluorescent assembly),[1],more than 25 minutes
same,formation of fluorescent ternary assembly with caged^FIREtag and ^FIREmate,"[2]; 1, 5, 10, 25 or 50 μM, even in absence of rapamycin",could still form a fluorescent ternary assembly
same,concentration required to reach full ternary assembly with caged^FIREtag,[2]; absence of rapamycin,"higher concentrations of HBR-2,5DM were required to reach full ternary assembly in absence of rapamycin"
